In patent publication US4803220A, “Pharmaceutical agents” (Imperial Chemical Industries PLC, priority 1984, dated 1989):

Assays:
[1] = test system: citrated, platelet rich, human plasma; test: blood platelet aggregation test, U46619 induced aggregation of platelet rich plasma; type: cell-based; details: inhibition of aggregation of human platelet rich plasma induced by U46619 (50-250 ng/ml)
Method: (b) a blood platelet aggregation test based on that described by Born (Nature, 1962, 194, 927-929) and involving measuring the inhibition by a test compound of aggregation of citrated, platelet rich, human plasma induced by a sub-maximal concentration (in the range 50-250 ng/ml.) of U46619; and […]

blood platelets = test: ex vivo U46619 induced blood platelet aggregation after oral dosing, rats; type: in vivo, rat; details: 6.5 hours after oral administration to rats at 10 mg./kg.
Excerpt: (§1) (e) For example in the rabbit, arterial blood samples are taken by standard techniques into 3.8% w/v solution of trisodium citrate as anti-coagulant (1 part citrate: 9 parts blood) and then centrifuged first at 150 g, and then at 1000 g, to prepare platelet rich and platelet poor plasma fractions. These fractions are then used to calibrate an instrument for measuring light transmittance and thus the amount of platelet aggregation. The extent of platelet aggregation following addition of the TXA2 mimetic agent U46619 (final concentrations 0.2-2.2 μg./ml.) to the platelet rich plasma fraction is then determined, and the value of maximum aggregation in response to each concentration of U46619 is recorded. The test animals are then dosed orally with the test compound, and arterial blood samples are withdrawn at intervals after dosing. The platelet rich plasma fraction is prepared and U46619 added as above, and the extent of aggregation assessed by measuring the light transmittance of the sample. This value is compared with that obtained from the same animal before dosing, so that a measure of the extent of inhibition of U46619 induced blood platelet aggregation is obtained.
A similar procedure is used in rats and guinea pigs except that blood samples are not taken prior to dosing but a control value is obtained from a group of undosed animals. […]

guinea-pig = test: bronchoconstriction test, Konzett-Rossler guinea-pig model, U46619 induced; type: in vivo; details: for reduction (inhibition) of bronchoconstriction: 0.5 mg./kg. p.o., 2.5 hours after administration, guinea-pig, U46619 i.v.
Method: (c) a bronchoconstriction test involving measuring the inhibition by a test compound of the bronchoconstriction induced in the Konzett-Rossler guinea-pig model (as modified by Collier and James, Brit. J. Pharmacol., 1967, 30, 283-307) by intravenous administration of the TXA2 mimetic agent, U46619 at 1-1.9 μg/kg.

[2] = test system: Male rats (Alderley Park strain); test: U46619 induced hypertensive effect in anaesthetised rats; type: in vivo, rat
Method: (d) Male rats (Alderley Park strain) are anaesthetised with sodium pentobarbital and blood pressure is monitored at the carotid artery. The TXA2 mimetic agent known as U46619 is administered intravenously via the jugular vein and an ED50 (dose necessary to produce 50% of the maximum hypertensive effect) is established (n=3). The ED50 for U46619 is approximately 5 μg/kg. The test compound is then administered either intravenously via the jugular vein or orally via a cannula directly into the stomach and the animal challenged with an ED50 dose of U46619, five minutes after dosing with test compound and then successively every ten minutes until the hypertensive effect of U46619 is no longer blocked.

dog platelets = test: ex vivo U46619 induced blood platelet aggregation after oral dosing, dogs; type: in vivo; details: for inhibition of U46619 induced aggregation: 12 hours after oral administration to dogs at 2.5 mg./kg.
Excerpt: as §1
A similar procedure is used in rats and guinea pigs except that blood samples are not taken prior to dosing but a control value is obtained from a group of undosed animals. When the aggregation of dog platelets is being studied, it is necessary to use a predetermined, threshold concentration of the platelet aggregant adenosine diphosphate (about 0.4-1.2×10^-6 M) together with the TXA2 mimetic agent, U46619.

O=C(O)CCC/C=C\C[C@@H]1CO[C@H](C(F)(F)F)O[C@@H]1c1ccccc1O (relative stereo) [formula I, 5(Z)-7-([2,4,5-cis]-4-o-hydroxyphenyl-2-trifluoromethyl-1,3-dioxan-5-yl)heptenoic acid]
IC50 [1]: 7.78 ± 1.6 ng/mL | inhibition of U46619 induced aggregation (blood platelets): 90% | inhibition of bronchoconstriction (guinea-pig; 0.5 mg./kg. oral, 3 hours after dosing (as restated)): ~95% | reduction (inhibition) of bronchoconstriction (guinea-pig): ~95% | protection from blood pressure rise induced by U46619 ([2]; 3 hours after oral administration at 5 mg./kg., rats): essentially complete protection | inhibition of U46619 induced aggregation (dog platelets): 95% | inhibition of U46619 induced platelet aggregation (in words) (dog platelets; for up to 12 hours following an oral dose of 2.5 mg./kg. in dogs): essentially complete inhibition

CCCCC[C@H](O)/C=C/[C@@H]1[C@@H](C/C=C\CCCC(=O)O)[C@H]2CO[C@@H]1C2 [Example U46619]
ED50 ([2]; Rattus norvegicus, iv, U46619 intravenously via the jugular vein, anaesthetised rats, n=3, read-out: ED50 (dose necessary to produce 50% of the maximum hypertensive effect)): ~5 µg/kg

O=C(O)CCC/C=C\C[C@@H]1CO[C@H](C(F)(F)F)O[C@@H]1c1ccccc1 (relative stereo) [Q, 5(Z)-7-([2,4,5-cis]-4-phenyl-2-trifluoromethyl-1,3-dioxan-5-yl)heptenoic acid]
reduction (inhibition) of bronchoconstriction (guinea-pig): no significant inhibition | maximal inhibition of platelet aggregation (dog platelets; some 4 hours after an oral dose of 75 mg./kg. in dogs): 23%

CC1(C)OC[C@@H](C/C=C\CCCC(=O)O)[C@@H](c2ccccc2O)O1 (relative stereo) [P, 5(Z)-7-(4-o-hydroxyphenyl-2,2-dimethyl-1,3-dioxan-cis-5-yl)heptenoic acid]
reduction (inhibition) of bronchoconstriction (guinea-pig): 57% | inhibition of U46619 induced aggregation (dog platelets): 15% | maximal inhibition of platelet aggregation (dog platelets; some 3 hours after an oral dose of 2.5 mg./kg. in dogs): 93%
